Test results as given in PubChem BioAssay (NCI).
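Following 48 hours of exposure in 96-well plates, responses at five concentrations were used to interpolate endpoints linearly. TGI: total growth inhibition.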 Where a SMILES comes first, the peptide text is derived from it. The star is where a group is joined. Boc = CC(C)(C)OC(=O)*

Experiments:
Test in all cases: DTP human tumour cell line panel, 48 h
[1] = tested on: HOP-62 NSCLC
[2] = tested on: A498 renal
[3] = tested on: SR leukemia
[4] = tested on: NCI/ADR-RES ovarian
[5] = tested on: NCI-H226 lung

Compound	TGI [1] [µM]	TGI [2] [µM]	TGI [3] [µM]	TGI [4] [µM]	TGI [5] [µM]
S=C(c1c[nH]c2ccccc12)N1CCN(c2ccccc2)CC1	> 100	> 100	> 100	> 100	> 100
CC(=N/NC(=S)N1CCCCC1)/C(C)=N\NC(=S)N1CCCCC1	3.51	2.86		5.22	3
CCOCC(NC(=O)C(CC(C)C)NC(=O)OC(C)(C)C)C(N)=O (stereo not drawn) (Boc-Leu-Ser(Et)-NH2; configuration not given here)	> 100	> 100		> 100	> 100
Cn1c2ccccc2n2c(=O)c3cccnc3c(C#N)c12	> 100	> 100		> 100	30.1
NC12CC3CC4C1CC1CC2C(C3)C4(N)C1	> 100	> 100		> 100	> 100
O=C(O)c1cc(O)c2c(c1)Cc1cccc(O)c1C2=O	43	> 100	66.8	93.9	59.5
COc1cc(C(=O)Nc2c3ccccc3nc3ccccc23)cc(OC)c1OC	> 80.1			> 100	> 100
CSc1nncc2[nH]cnc12	> 100	> 100	> 100	> 100	> 100
O=C1OC[C@@H]2Cc3c([nH]c4ccccc34)[C@@H](c3cc(O)c(O)c(O)c3)N12	67.8	48	61.9	72.3	49.9
NCCCc1c(-c2ccccc2)nc(N)[nH]c1=O	> 100	> 100	> 100	> 100	> 100
O=S(=O)(O)c1ccc2c(N=Nc3ccccc3Cl)c(O)ccc2c1	> 100	> 100	> 100	> 100	
Cc1ccc([N+](=O)[O-])cc1S(=O)(=O)Nc1ccc(C2=NNC(c3cccs3)C2)cc1 (configuration not stated)	60.2	93.1	78.8	94.6	> 100
COC(OC)(c1ccccc1)C(I)I	> 58.3		> 45.7	> 59.7	42.4
CC1(C)N=C(/C=N/O)C(C)(C)N1O	> 100	> 100	> 100	> 100	> 100
O=c1c(-c2ccccc2Cl)coc2cc(F)ccc12	62.2	47.2		46.7	> 100
O[C@H]1[C@H](O)[C@H](O)CN2CCC[C@@H](O)[C@H]12	> 100	> 100	> 100	> 100	> 100
CC(=O)O[C@H]1C(=O)[C@@]2(C)[C@H]([C@H](OC(=O)c3ccccc3)[C@]3(O)C[C@H](OC(=O)[C@H](O)[C@@H](NC(=O)CC(C)C)c4ccccc4)C(C)=C1C3(C)C)[C@]1(OC(C)=O)CO[C@@H]1C[C@@H]2O	> 10	> 10	0.138	> 10	> 10
Cc1ccc(/C=N/NC2=NCCN2)s1	> 100			> 100	> 100

Compound	TGI [1] [µM]	TGI [2] [µM]	TGI [3] [µM]	TGI [4] [µM]	TGI [5] [µM]
Cc1ccc(S(=O)(=O)/N=C(\[O-])C2=C(c3ccccc3)NN(C)c3nc4cccc[n+]4nc32)cc1		> 100	> 100	> 100	> 100
CC1(C)C[C@H](O)[C@H](O)[C@]23C(=O)O[C@H](O)[C@H]2C(C=O)=CC[C@@H]13	> 100		> 100	> 100	> 100
CC(C)(C)OC(=O)NC(Cc1ccc(OCc2ccccc2)cn1)C(=O)N1CCSCC1 (configuration not stated)	> 100	> 100	75.3	94.5	
CN(C)CCNC(=O)c1ccc(NCCCN(C)CCCNc2ccc(C(=O)NCCN(C)C)c3[nH]c4ccc([N+](=O)[O-])cc4c(=O)c23)c2c(=O)c3cc([N+](=O)[O-])ccc3[nH]c12	1.92	0.537	1.91	3.58	
OCCN=C1c2ccccc2C2C(c3ccccc31)C1c3ccccc3C(=NCCO)c3ccccc3C21 (configuration not stated)	39.4		28.9	72.6	17.8
CSc1ccc(/C=C2\N=C(c3ccccc3)N(c3nc4c(Cl)cc(Cl)cc4s3)C2=O)cc1	39.7	40.8	50.3	68.2	
COc1ccc2c(c1)CCCN1CCc3cc(OC)c(OC)cc3C21 (configuration not stated)	> 100		> 100	56	> 100
CC1C(c2ccc3c(c2)OCO3)c2cc3c(cc2OC1N1CCCCC1)OCO3 (configuration not stated)	> 100		> 100	> 100	
Fc1cc(-c2ncc(Cl)cc2Cl)c2cccccc1-2	> 100			> 100	> 100
COc1ccc(N=C2C(=Nc3ccc(OC)cc3)N(S(=O)(=O)c3ccccc3)C(=S)N2c2ccc(OC)cc2)cc1	> 100		> 100	> 100	> 100
CC(C)(C)OC(=O)Nc1cc(-c2ccccc2)co1	> 100	> 100		> 100	> 100
Nn1c(SCC(=O)NCc2ccccc2)nc2ccccc2c1=O		> 100	69	> 100	> 100
CCOC(=O)C(C)(C)/C=C\C(Cl)=C(Cl)Cl	> 100		> 100	> 100	> 100
CC(=O)c1c(-c2ccccc2)c(-c2ccc(OCCN(C)C)cc2)n2ccccc12		39.3		33.9	38.3
COc1ccccc1N=N/C(=N/NC(=O)c1ccc(C)cc1)c1ccc(N(CCC#N)CCC#N)cc1OC	> 100	55.8		> 100	> 100
CC(=O)NNC(=S)/N=C/c1c(O)cc(C)oc1=O	> 100			> 100	> 100
O=C1CC(c2ccc[nH]2)=NN1c1ccccc1	> 100	> 100		> 100	> 100
COc1cc2c3c(n(Cc4ccccc4)c(=O)c2cc1OC)-c1ccccc1C3=O	> 100		> 100	> 100	> 100
